Experimental data from US20160184439A1, “ORALLY DISINTEGRATING FILM PREPARATION CONTAINING DONEPEZIL OR PHARMACEUTICALLY ACCEPTABLE SALT THEREOF, AND PREPARATION METHOD THEREFOR” (SEOUL PHARMA. CO., LTD., priority 2013, published 2016).

Experiment: Characteristic feature of the main excipients
Details: effect of excipient in donepezil film
Source text: The characteristic feature of the main excipients of the present invention—In order to achieve the object of the above formulation research, it can be seen that the main excipients of the below Table 3 are essential elements.

SMILES	Occurrence of the impurity
Cc1cc(C(C)(C)C)c(O)c(C(C)(C)C)c1 [Dibuthylhydroxytoluene]	Inhibition
CC(O)COC[C@H]1O[C@@H]2O[C@H]3[C@H](O)[C@@H](O)[C@@H](O[C@H]4[C@H](O)[C@@H](O)[C@@H](O[C@H]5[C@H](O)[C@@H](O)[C@@H](O[C@H]6[C@H](O)[C@@H](O)[C@@H](O[C@H]7[C@H](O)[C@@H](O)[C@@H](O[C@H]8[C@H](O)[C@@H](O)[C@@H](O[C@H]1[C@H](O)[C@H]2O)O[C@@H]8COCC(C)O)O[C@@H]7COCC(C)O)O[C@@H]6COCC(C)O)O[C@@H]5COCC(C)O)O[C@@H]4COCC(C)O)O[C@@H]3COCC(C)O (some centres unmarked) [Hydroxypropylbetadex]	Inhibition
